Measured values as given in US8410161B2, “Thioxanthone ring system derivatives” (National Defense Medical Center, priority 2010, dated 2013).

What was measured:
Assay type in all cases: cell-based
NCI/ADR-RES = assay: NCI in vitro DTP human cell line screen, NCI/ADR-RES; settings: Ovarian Cancer, 1.00E−5 Molar
Description: (§1) Then, a cell toxicity assay of the cancer lines made by National Cancer Institute will be discussed as follows. The cell toxicity assay is performed by choosing ten compounds (existing certification numbers) from the 59 compounds disclosed in the present invention first.

MCF7 = assay: NCI in vitro DTP human cell line screen, MCF7; settings: Breast Cancer, 1.00E−5 Molar
Description: as §1

SNB-75 = assay: NCI in vitro DTP human cell line screen, SNB-75; settings: CNS Cancer, 1.00E−5 Molar
Description: as §1

HCT-116 = assay: NCI in vitro DTP human cell line screen, HCT-116; settings: Colon Cancer, 1.00E−5 Molar
Description: as §1

RXF 393 = assay: NCI in vitro DTP human cell line screen, RXF 393; settings: Renal Cancer, 1.00E−5 Molar
Description: as §1

CAKI-1 = assay: NCI in vitro DTP human cell line screen, CAKI-1; settings: Renal Cancer, 1.00E−5 Molar
Description: as §1

CCRF-CEM = assay: NCI in vitro DTP human cell line screen, CCRF-CEM; settings: Leukemia, 1.00E−5 Molar
Description: as §1

786-0 = assay: NCI in vitro DTP human cell line screen, 786-0; settings: Renal Cancer, 1.00E−5 Molar
Description: as §1

MDA-MB-231/ATCC = assay: NCI in vitro DTP human cell line screen, MDA-MB-231/ATCC; settings: Breast Cancer, 1.00E−5 Molar
Description: as §1

NCI-H522 = assay: NCI in vitro DTP human cell line screen, NCI-H522; settings: Non-Small Cell Lung Cancer, 1.00E−5 Molar
Description: as §1

BT-549 = assay: NCI in vitro DTP human cell line screen, BT-549; settings: Breast Cancer, 1.00E−5 Molar
Description: as §1

A3 cell lines = assay: MTT assay, A3 cell lines (lung cancer stem cell)
Source text: Please to FIG. 4B, various cell viabilities of the A3 cell lines can be obtained through the MTT assay and illustrated in FIG. 4B while the compounds No. 1˜30 are used to treat A3 cell lines, wherein A3 cell lines are lung cancer stem cell.

MDA-MB-435 = assay: NCI in vitro DTP human cell line screen, MDA-MB-435; settings: Melanoma, 1.00E−5 Molar
Description: as §1

EKVX = assay: NCI in vitro DTP human cell line screen, EKVX; settings: Non-Small Cell Lung Cancer, 1.00E−5 Molar
Description: as §1

K562 = assay: NCI in vitro DTP human cell line screen, K562; settings: Leukemia, 1.00E−5 Molar
Description: as §1

UACC-257 = assay: NCI in vitro DTP human cell line screen, UACC-257; settings: Melanoma, 1.00E−5 Molar
Description: as §1

NCI-H460 = assay: NCI in vitro DTP human cell line screen, NCI-H460; settings: Non-Small Cell Lung Cancer, 1.00E−5 Molar
Description: as §1

NCI-H23 = assay: NCI in vitro DTP human cell line screen, NCI-H23; settings: Non-Small Cell Lung Cancer, 1.00E−5 Molar
Description: as §1

KM12 = assay: NCI in vitro DTP human cell line screen, KM12; settings: Colon Cancer, 1.00E−5 Molar
Description: as §1

NCI-H322M = assay: NCI in vitro DTP human cell line screen, NCI-H322M; settings: Non-Small Cell Lung Cancer, 1.00E−5 Molar
Description: as §1

A control cell lines = assay: MTT assay, A control cell lines (lung cancer cell)
Source text: Please refer to Table 1 and FIGS. 4A-4C. According to a MTT assay (Table 1), various cell viabilities of the A control cell lines can be obtained and illustrated in FIG. 4A while the compounds No. 2˜30 are used to treat A control cell lines, wherein A control cell lines are lung cancer cell.

HOP-92 = assay: NCI in vitro DTP human cell line screen, HOP-92; settings: Non-Small Cell Lung Cancer, 1.00E−5 Molar
Description: as §1

HL-60(TB) = assay: NCI in vitro DTP human cell line screen, HL-60(TB); settings: Leukemia, 1.00E−5 Molar
Description: as §1

SK-MEL-5 = assay: NCI in vitro DTP human cell line screen, SK-MEL-5; settings: Melanoma, 1.00E−5 Molar
Description: as §1

HCT-15 = assay: NCI in vitro DTP human cell line screen, HCT-15; settings: Colon Cancer, 1.00E−5 Molar
Description: as §1

SK-MEL-2 = assay: NCI in vitro DTP human cell line screen, SK-MEL-2; settings: Melanoma, 1.00E−5 Molar
Description: as §1

COLO 205 = assay: NCI in vitro DTP human cell line screen, COLO 205; settings: Colon Cancer, 1.00E−5 Molar
Description: as §1

TK-10 = assay: NCI in vitro DTP human cell line screen, TK-10; settings: Renal Cancer, 1.00E−5 Molar
Description: as §1

OVCAR-8 = assay: NCI in vitro DTP human cell line screen, OVCAR-8; settings: Ovarian Cancer, 1.00E−5 Molar
Description: as §1

SNB-19 = assay: NCI in vitro DTP human cell line screen, SNB-19; settings: CNS Cancer, 1.00E−5 Molar
Description: as §1

OVCAR-5 = assay: NCI in vitro DTP human cell line screen, OVCAR-5; settings: Ovarian Cancer, 1.00E−5 Molar
Description: as §1

## O=c1c2ccccc2sc2c(Cl)c(Sc3ccc(Cl)cc3)ccc12 [No. 29, 4-Chloro-3-(4-chlorophenylthio)-9H-thioxanthen-9-one]
NCI/ADR-RES
  Growth Percent: 81.27%
MCF7
  Growth Percent: 83.90%
SNB-75
  Growth Percent: 76.16%
HCT-116
  Growth Percent: 54.33%
RXF 393
  Growth Percent: 97.81%
CAKI-1
  Growth Percent: 48.21%
CCRF-CEM
  Growth Percent: 67.42%
786-0
  Growth Percent: 84.66%
MDA-MB-231/ATCC
  Growth Percent: 77.55%
NCI-H522
  Growth Percent: 80.48%
BT-549
  Growth Percent: 87.92%
A3 cell lines
  cell viabilities of A3 cell lines (MTT assay): 70.3 ± 5.31%
MDA-MB-435
  Growth Percent: 85.11%
EKVX
  Growth Percent: 73.14%
K562
  Growth Percent: 96.64%
UACC-257
  Growth Percent: 99.23%
NCI-H460
  Growth Percent: 40.25%
NCI-H23
  Growth Percent: 83.03%
KM12
  Growth Percent: 73.79%
NCI-H322M
  Growth Percent: 56.53%
A control cell lines
  cell viabilities of A control cell lines (MTT assay): 70.1 ± 2.68%
HOP-92
  Growth Percent: 49.52%
HL-60(TB)
  Growth Percent: 105.61%
SK-MEL-5
  Growth Percent: 88.35%
HCT-15
  Growth Percent: 85.15%
SK-MEL-2
  Growth Percent: 105.36%
COLO 205
  Growth Percent: 87.02%
TK-10
  Growth Percent: 88.86%
OVCAR-8
  Growth Percent: 64.49%
SNB-19
  Growth Percent: 74.97%
OVCAR-5
  Growth Percent: 107.36%
